Assay results reported in patent publication US20210330611A1, “THERAPY FOR NEUROLOGICAL DISEASES/DISORDERS” (priority 2020, published 2021).
Structures can show the parent of a compound that is named as a salt. Where two headings read alike, the source gives them in different places.

What was measured:
[1] = system: LPS-induced microglia activation; experiment: Image-based assay of LPS-induced microglia activation (HTS and dose response); format: cell-based, rat; conditions: for inhibition at 10 µM: Rattus norvegicus, Microglia, read-out: LPS % inhibition
primary rat microglia [2] = experiment: Cell toxicity (dead cells, size <150 μm2) in coated fibrin (cFib) assay; conditions: for Fibrin % cell toxicity: primary microglia HTS, fibrin stimulation;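 on Fibrin % cell toxicity: share of dead cells sized under 150 µm2 at 10 µM in fibrin-stimulated microglia HTS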
[3] = system: fibrin- and LPS-induced microglia activation; experiment: cells; format: cell-based, rat
primary rat microglia [4] = experiment: Cell toxicity (dead cells, size <150 μm2) in LPS assay; conditions: for LPS % cell toxicity: primary microglia HTS, LPS stimulation
[5] = system: fibrin-induced microglia activation; experiment: Image-based assay of fibrin-induced microglia activation (HTS and dose response); format: cell-based, rat; conditions: for inhibition at 10 µM: Rattus norvegicus, Microglia, read-out: Fibrin % inhibition
[6] = 48 h, primary microglia HTS, LPS stimulation, activation = cell size >800 μm2
[7] = quadrant by fibrin and LPS inhibition in HTS of 1907 compounds
[8] = primary microglia HTS, fibrin stimulation, activation = cell size >800 μm2
[9] = 48 h, primary microglia HTS, LPS stimulation, increased cell size (>800 μm^2) as marker of activation
[10] = decreased size (<150 μm^2) as marker of toxicity
[11] = primary microglia HTS, fibrin stimulation, increased cell size (>800 μm^2) as marker of activation

| SMILES | inhibition at 10 µM [1, 6] | Fibrin % cell toxicity (primary rat microglia [2]; toxicity = cell size <150 μm2) | Quadrant (FIG. 5b) [3, 7] | LPS % cell toxicity (primary rat microglia [4]; toxicity = cell size <150 μm2) | inhibition at 10 µM [5, 8] | other results |
| --- | --- | --- | --- | --- | --- | --- |
| CC[C@H]1CN2CC[C@H]1C[C@@H]2[C@@H](O)c1ccnc2ccc(OC)cc12 [Hydroquinidine] | 18% | 1% | Q4 | 0% | -8% | – |
| CC(N)Cc1ccc(O)cc1 (stereo not shown) [Hydroxyamphetamine] | -2% | 1% | Q4 | 0% | -12% | – |
| CCN(CCO)CCCC(C)Nc1ccnc2cc(Cl)ccc12 (stereo not shown) [Hydroxychloroquine] | 17% | 1% | Q4 | 0% | 35% | – |
| CCCCCC(=O)O[C@]1(C(C)=O)CC[C@H]2[C@@H]3CCC4=CC(=O)CC[C@]4(C)[C@H]3CC[C@@]21C [Hydroxyprogesterone Caproate] | 25% | 1% | Q4 | 0% | 22% | – |
| CC/C=C\C/C=C\C/C=C\C/C=C\C/C=C\CCCC(=O)OCC [Icosapent ethyl] | 1% | 0% | Q4 | 0% | -13% | – |
| O=C1C2CC3CC1CC(O)(C3)C2 [Idramantone] | 8% | 1% | Q4 | 0% | -7% | – |
| CC#CCC(C)[C@H](O)/C=C/[C@@H]1[C@H]2C/C(=C/CCCC(=O)O)C[C@H]2C[C@H]1O (stereo partly shown) [Iloprost] | -1% | 1% | Q4 | 0% | 23% | – |
| N=C1NC(=O)N2CC12 (stereo not shown) [Imexon] | 12% | 1% | Q4 | 1% | -3% | – |
| CC1Cc2ccccc2N1NC(=O)c1ccc(Cl)c(S(N)(=O)=O)c1 (stereo not shown) [Indapamide] | 11% | 0% | Q4 | 0% | -14% | – |
| CC(C(=O)O)c1ccc(N2Cc3ccccc3C2=O)cc1 (stereo not shown) [Indoprofen] | 18% | 1% | Q4 | 0% | -34% | – |
| O[C@H]1[C@H](O)[C@@H](O)[C@H](O)[C@@H](O)[C@H]1O [Inositol] | 11% | 0% | Q4 | 0% | -21% | – |
| CC(=O)NCc1c(I)c(NC(C)=O)c(I)c(C(=O)O)c1I [Iodamide] | – | – | Q1 | – | – | inhibition at 10 µM [1, 9]: 67%; Fibrin % cell toxicity (primary rat microglia [2]; [10]): 0%; LPS % cell toxicity (primary rat microglia [4]; [10]): 1%; inhibition at 10 µM [5, 11]: 41% |
| CC(=O)N(CC(O)CN(C(C)=O)c1c(I)c(C(=O)NCC(O)CO)c(I)c(C(=O)NCC(O)CO)c1I)c1c(I)c(C(=O)NCC(O)CO)c(I)c(C(=O)NCC(O)CO)c1I (stereo not shown) [Iodixanol] | 10% | 0% | Q4 | 0% | -15% | – |
| C[C@H](O)C(=O)Nc1c(I)c(C(=O)NC(CO)CO)c(I)c(C(=O)NC(CO)CO)c1I [Iopamidol] | -4% | 1% | Q4 | 0% | -14% | – |
| CCC(Cc1c(I)cc(I)c(N)c1I)C(=O)O (stereo not shown) [Iopanic acid, reference compound] | – | – | Q3 | – | – | IC50 ([1]; Table 1, dose response 0.001-20 μM, triplicates, primary rat microglia, 48 h, read-out: LPS IC50): > 20 µM; IC50 ([1]; Table 3, read-out: LPS IC50 (uM) (Suppl. Table 7)): > 20 µM; IC50 ([1]; dose response, LPS-induced microglia activation, read-out: LPS IC50): > 20 µM; LPS % inhibition ([1]; primary microglia HTS, LPS stimulation, increased cell size (>800 μm^2) as marker of activation): 35%; Fibrin % cell toxicity (primary rat microglia [2]; [10]): 1%; IC50 (primary rat microglia [2]; read-out: Cell Toxicity IC50 (uM) [cFib assay], Table 3): > 20 µM; Hit ([3]; HTS hit classification): HIT (Hits were defined as molecules that exhibited greater than 50% inhibition of either fibrin or LPS activation); Quadrant (FIG. 5b) ([3]; Table 1, screen at 10 μM): Q3; Cherry-picked Hit (Suppl. Table 7) ([3]; Table 3): HIT (Hits were defined as molecules that exhibited greater than 50% inhibition of either fibrin or LPS activation); Quadrant (FIG. 5b) ([3]; Table 3, screen at 10 μM): Q3; LPS % cell toxicity (primary rat microglia [4]; [10]): 0%; IC50 (primary rat microglia [4]; read-out: Cell Toxicity IC50 (uM) [LPS assay], Table 3): > 20 µM; Fibrin Selectivity [5]: 4; Fibrin Selectivity (LOG10) [5]: 0.58; IC50 ([5]; Table 1, dose response 0.001-20 μM, triplicates, primary rat microglia, 48 h, read-out: Fibrin IC50): 5 µM; IC50 ([5]; Table 3, read-out: Fibrin IC50 (uM) (Suppl. Table 7)): 5 µM; IC50 ([5]; dose response, fibrin-induced microglia activation, read-out: Fibrin IC50): 5 µM; Fibrin % inhibition [5, 11]: 51% |
| CNC(=O)c1c(I)c(NC(C)=O)c(I)c(C(=O)O)c1I [Iothalamic Acid] | 7% | 1% | Q4 | 0% | 5% | – |
| CC(=O)N(CC(O)CO)c1c(I)c(C(=O)NCCO)c(I)c(C(=O)NCC(O)CO)c1I (stereo not shown) [Ioxilan] | 8% | 0% | Q4 | 0% | 7% | – |
| CC(C)Oc1ccc2c(=O)c(-c3ccccc3)coc2c1 [Ipriflavone] | 7% | 1% | Q4 | 0% | -29% | – |
| CC(C)CCCC(C)NC(C)C (stereo not shown) [Iproheptine] | 11% | 1% | Q4 | 0% | -34% | – |
| Nc1nc(N)nc(-c2cc(Cl)ccc2Cl)n1 [Irsogladine Maleate] | 14% | 1% | Q4 | 0% | -27% | – |
| CC(C)Nc1ncccn1 [Isaxonine] | -1% | 0% | Q4 | 0% | -46% | – |
| CC(C)COC(=O)c1ccc(N)cc1 [Isobutamben] | -1% | 1% | Q4 | 0% | -5% | – |
| CCC(NC(C)C)C(O)c1ccc(O)c(O)c1 (stereo not shown) [Isoetarine] | 23% | 1% | Q4 | 0% | 21% | – |
| CC(=O)OCC(=O)[C@@]1(O)CC[C@H]2[C@@H]3CCC4=CC(=O)C=C[C@]4(C)[C@@]3(F)[C@@H](O)C[C@@]21C [Isoflupredone Acetate] | – | – | Q2 | – | – | inhibition at 10 µM [1, 9]: 90%; Fibrin % cell toxicity (primary rat microglia [2]; [10]): 3%; LPS % cell toxicity (primary rat microglia [4]; [10]): 2%; inhibition at 10 µM [5, 11]: 106% |
| NNC(=O)c1ccncc1 [Isoniazid] | 19% | 1% | Q4 | 0% | -29% | – |
